# In article PMC7413254 (Nature Communications, 2020):
# Read-outs that look alike come from different tables or passages of the source.
# Columns and labels:
# [1] = system: non-expressing oocytes; test: cells; format: cell-based, Xenopus laevis; conditions: Xenopus laevis, total [3H]CQ transport; for inhibition at 500 µM: [test solute] = 0.5 mM; for inhibition at 1000 µM: [test solute] = 1 mM; for inhibition at 2000 µM: [test solute] = 2 mM
# Procedure, shortened: (§1)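 Assay buffer ND96 (10 mM MES, 10 mM Tris-base) held at pH 5.5 to mimic vacuole lumen; uptake measured inward from this acidic medium over 1.5 h at 27.5 °C.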
# [2] = molecular target: T1, PfCRT^3D7 (Plasmodium falciparum, UniProt Q8IBZ9); test: cell-based; format: cell-based; conditions: total [3H]CQ transport; for inhibition at 500 µM: [test solute] = 0.5 mM; for inhibition at 1000 µM: [test solute] = 1 mM; for inhibition at 2000 µM: [test solute] = 2 mM
# Procedure, shortened: as §1
# [3] = molecular target: T2, PfCRT^Dd2 (Plasmodium falciparum, UniProt Q9N623, A220S/I356T/K76T/M74I/N326S/N75E/Q271E/R371I); test: [3H]CQ uptake into Xenopus oocytes, cis-inhibition by unlabelled solute; format: cell-based
# Procedure, shortened: as §1
# [4] = molecular target: T3, PfCRT^Ecu1110 (Plasmodium falciparum, UniProt Q9N623, A220S/I356L/K76T/N326D); test: as above; format: cell-based
# Procedure, shortened: as §1
# [5] = system: non-expressing oocytes; format: cell-based, Xenopus laevis; conditions: total [3H]CQ transport; for Uptake of [3H]CQ (% non-expressing oocyte control), trans-stimulation: non-expressing oocytes, normalised to the oocyte type control; for Uptake of [3H]CQ (% PfCRTDd2 control), trans-stimulation, non-expressing oocytes: mean ± SEM, SEM
# Procedure, shortened: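 Oocytes (ten per treatment, ≥4 independent frogs/days) were preloaded by injecting VF-6 in 25 nL ND96 at pH 5.0, 5.5, 6.0 or 7.0, or Na^+-free choline buffer, then uptake run 1.5 h, 27.5 °C, ND96 pH 5.5 by default. Internal concentrations assumed ~400 nL oocyte volume.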
# [6] = molecular target: T1, PfCRT^3D7; test: cell-based; format: cell-based
# Procedure, shortened: (§2)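 Transport measured in Xenopus oocytes expressing the transporters, 1.5 h at 27.5 °C in ND96 pH 5.5 unless noted. For trans-stimulation, VF-6 injected in 25 nL ND96 at pH 5.0–7.0 or Na^+-free (choline) buffer; intracellular levels based on ~400 nL oocyte volume. Ten oocytes per treatment, ≥4 experiments.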
# [7] = molecular target: T2, PfCRT^Dd2; test: cell-based; format: cell-based; conditions: […]; for activity at 45000 µM: [test solute]i = 45 mM (30 mM for some solutes due to solubility)
# Procedure, shortened: as §2
# [8] = molecular target: T3, PfCRT^Ecu1110; test: cell-based; format: cell-based; conditions: […]
# Procedure, shortened: as §2
# [9] = molecular target: T4, PfNT1 (Plasmodium falciparum, UniProt Q8IDM6); test: cell-based; format: cell-based; conditions: for activity at 5000 µM: total [3H]CQ transport
# T4 construct: expressed in transfected cells; host or cells: Xenopus laevis oocytes (stage V-VI), cRNA-injected
# Procedure, shortened: as §2
# [10] = system: PfCRT; test: Test of solutes as potential co-substrates for influx of VF-6 via PfCRT into the oocyte; format: cell-based, Plasmodium falciparum; parameters: key: X: Compounds that have been tested as potential co-substrates but are not required for influx of VF-6 via PfCRT into the oocyte; conditions: X = tested
# [11] = system: PfCRT; test: Potential co-substrates tested for influx of VF-6 via PfCRT into the oocyte; format: cell-based, Plasmodium falciparum; parameters: key: X: Compounds that have been tested as potential co-substrates but are not required for influx of VF-6 via PfCRT into the oocyte
# [12] = Oocyte, mean ± SEM, SEM, read-out: Uptake of [3H]CQ (% PfCRTDd2 control), cis-inhibition, non-expressing oocytes
# [13] = non-expressing oocytes, normalised to the oocyte type control, read-out: Uptake of [3H]CQ (% non-expressing oocyte control), cis-inhibition
# [14] = PfCRT3D7 oocytes, normalised to the oocyte type control, read-out: Uptake of [3H]CQ (% PfCRT3D7 control), cis-inhibition
# [15] = mean ± SEM, SEM, read-out: Uptake of [3H]CQ (% PfCRTDd2 control), cis-inhibition, PfCRT3D7
# [16] = read-out: PfCRT-mediated [3H]CQ transport, cis-inhibition (% PfCRTDd2 control)
# [17] = read-out: Uptake of [3H]CQ (% PfCRTDd2 control), cis-inhibition
# [18] = read-out: Uptake of [3H]CQ (% PfCRTDd2 control), cis-inhibition, PfCRTDd2, SEM
# [19] = read-out: [3H]CQ transport (% PfCRTDd2 control), cis-inhibition, PfCRTDd2, SEM
# [20] = read-out: PfCRT-mediated [3H]CQ transport, cis-inhibition (% PfCRTEcu1110 control)
# [21] = read-out: Uptake of [3H]CQ (% PfCRTDd2 control), cis-inhibition, PfCRTEcu1110, SEM
# [22] = read-out: Uptake of [3H]CQ (% PfCRTEcu1110 control), cis-inhibition
# [23] = read-out: [3H]CQ transport (% PfCRTEcu1110 control), cis-inhibition, PfCRTEcu1110, SEM
# T2 sequence (Q9N623 whole entry A220S/I356T/K76T/M74I/N326S/N75E/Q271E/R371I): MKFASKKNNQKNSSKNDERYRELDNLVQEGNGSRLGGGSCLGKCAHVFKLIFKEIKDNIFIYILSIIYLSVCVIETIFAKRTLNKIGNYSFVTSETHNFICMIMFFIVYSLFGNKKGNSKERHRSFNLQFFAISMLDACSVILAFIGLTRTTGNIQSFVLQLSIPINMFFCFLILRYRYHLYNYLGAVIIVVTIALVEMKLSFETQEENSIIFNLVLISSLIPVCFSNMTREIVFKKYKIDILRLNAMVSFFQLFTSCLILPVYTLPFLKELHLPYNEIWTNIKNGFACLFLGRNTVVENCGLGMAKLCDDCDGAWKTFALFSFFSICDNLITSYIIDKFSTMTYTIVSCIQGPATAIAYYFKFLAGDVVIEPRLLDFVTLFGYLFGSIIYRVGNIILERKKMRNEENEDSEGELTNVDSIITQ
# T3 sequence (Q9N623 whole entry A220S/I356L/K76T/N326D): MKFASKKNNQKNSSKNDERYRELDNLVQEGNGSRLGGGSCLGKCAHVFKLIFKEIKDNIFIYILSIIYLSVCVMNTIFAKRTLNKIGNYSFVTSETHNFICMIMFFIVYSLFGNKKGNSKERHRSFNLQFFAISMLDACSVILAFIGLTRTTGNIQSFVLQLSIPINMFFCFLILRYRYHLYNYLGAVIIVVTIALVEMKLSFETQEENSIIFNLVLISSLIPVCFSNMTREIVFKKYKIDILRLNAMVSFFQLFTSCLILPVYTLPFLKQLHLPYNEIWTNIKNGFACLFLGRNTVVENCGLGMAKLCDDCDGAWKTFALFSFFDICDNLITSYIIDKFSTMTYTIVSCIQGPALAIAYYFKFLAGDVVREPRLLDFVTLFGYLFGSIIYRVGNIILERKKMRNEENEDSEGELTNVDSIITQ
# T4 sequence (Q8IDM6 whole entry): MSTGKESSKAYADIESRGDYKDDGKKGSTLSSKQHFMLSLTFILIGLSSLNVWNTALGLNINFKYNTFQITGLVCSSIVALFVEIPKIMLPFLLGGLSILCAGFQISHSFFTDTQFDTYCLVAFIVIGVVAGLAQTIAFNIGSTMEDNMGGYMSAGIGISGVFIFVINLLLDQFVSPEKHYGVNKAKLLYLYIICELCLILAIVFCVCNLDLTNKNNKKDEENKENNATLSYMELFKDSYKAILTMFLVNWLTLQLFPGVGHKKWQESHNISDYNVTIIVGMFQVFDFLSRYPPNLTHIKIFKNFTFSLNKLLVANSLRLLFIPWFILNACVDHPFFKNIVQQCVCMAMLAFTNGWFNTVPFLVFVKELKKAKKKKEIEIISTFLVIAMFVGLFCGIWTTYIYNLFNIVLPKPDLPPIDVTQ
# T1 sequence (Q8IBZ9 59-398): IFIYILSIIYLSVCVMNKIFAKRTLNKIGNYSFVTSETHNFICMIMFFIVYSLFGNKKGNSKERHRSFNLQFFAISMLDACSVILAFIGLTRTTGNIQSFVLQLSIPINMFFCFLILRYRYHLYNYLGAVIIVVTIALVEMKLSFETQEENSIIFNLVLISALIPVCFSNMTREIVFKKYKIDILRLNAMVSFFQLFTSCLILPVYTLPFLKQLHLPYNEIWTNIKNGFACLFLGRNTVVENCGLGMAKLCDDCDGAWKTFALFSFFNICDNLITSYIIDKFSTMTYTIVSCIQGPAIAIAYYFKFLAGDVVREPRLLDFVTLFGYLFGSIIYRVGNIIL
smiles,measurement,setting,value
NC(=O)CC[C@H](N)C(=O)O [L-glutamine],inhibition at 500 µM,[1]; [12],3.2 ± 0.07%
same,inhibition at 1000 µM,[1]; [12],2.7 ± 0.05%
same,inhibition at 2000 µM,[1]; [12],2.2 ± 0.03%
same,inhibition at 500 µM,[1]; [13],99 ± 3.2%
same,inhibition at 1000 µM,[1]; [13],100 ± 6.3%
same,inhibition at 2000 µM,[1]; [13],98 ± 3.5%
same,inhibition at 500 µM,[2]; [14],101 ± 4.8%
same,inhibition at 1000 µM,[2]; [14],99 ± 3.6%
same,inhibition at 2000 µM,[2]; [14],99 ± 4.7%
same,inhibition at 500 µM,[2]; [15],2.6 ± 0.04%
same,inhibition at 1000 µM,[2]; [15],2.1 ± 0.01%
same,inhibition at 2000 µM,[2]; [15],2.6 ± 0.04%
same,inhibition at 500 µM,[3]; [16],98 ± 2.8%
same,inhibition at 1000 µM,[3]; [16],98 ± 3.6%
same,inhibition at 2000 µM,[3]; [16],95 ± 5.5%
same,inhibition at 500 µM,[3]; [17],100 ± 4.9%
same,inhibition at 1000 µM,[3]; [17],100 ± 5.2%
same,inhibition at 500 µM,[3]; [18],100 ± 4.9%
same,inhibition at 1000 µM,[3]; [18],100 ± 5.2%
same,inhibition at 2000 µM,[3]; [18],97 ± 8.3%
same,inhibition at 500 µM,[3]; [19],98 ± 2.8%
same,inhibition at 1000 µM,[3]; [19],98 ± 3.6%
same,inhibition at 1000 µM,[4]; [20],95 ± 3.5%
same,inhibition at 2000 µM,[4]; [20],96 ± 6.2%
same,inhibition at 500 µM,[4]; [21],32 ± 0.4%
same,inhibition at 1000 µM,[4]; [21],32 ± 1.4%
same,inhibition at 2000 µM,[4]; [21],32 ± 1.1%
same,inhibition at 500 µM,[4]; [22],98 ± 6.9%
same,inhibition at 1000 µM,[4]; [22],97 ± 6.4%
same,inhibition at 2000 µM,[4]; [22],99 ± 6.3%
same,inhibition at 500 µM,[4]; [23],29 ± 1.2%
same,inhibition at 1000 µM,[4]; [23],29 ± 0.2%
same,inhibition at 2000 µM,[4]; [23],29 ± 0.1%
same,"Uptake of [3H]CQ (% non-expressing oocyte control), trans-stimulation",[5]; [test solute]i = 5 mM,100 ± 3.2 % non-expressing oocyte control
same,"Uptake of [3H]CQ (% non-expressing oocyte control), trans-stimulation",[5]; [test solute]i = 45 mM (30 mM for some solutes due to solubility),98 ± 2.2 % non-expressing oocyte control
same,"Uptake of [3H]CQ (% PfCRTDd2 control), trans-stimulation, non-expressing oocytes",[5]; [test solute]i = 5 mM (intracellular),2.7 ± 0.07 % PfCRTDd2 control
same,"Uptake of [3H]CQ (% PfCRTDd2 control), trans-stimulation, non-expressing oocytes",[5]; [test solute]i = 45 mM (intracellular; 30 mM for some solutes due to solubility),2.7 ± 0.05 % PfCRTDd2 control
same,activity at 5000 µM,"[6]; PfCRT3D7 oocytes, [test solute]i = 5 mM, total [3H]CQ transport, normalised to the oocyte type control, read-out: Uptake of [3H]CQ (% PfCRT3D7 control), trans-stimulation",99 ± 3.2%
same,"[3H]CQ transport (% PfCRT3D7 control), trans-stimulation, PfCRT3D7",[6]; SEM,0.3 ± 0.01 % PfCRT3D7 control
same,activity at 5000 µM,"[6]; [test solute]i = 5 mM (intracellular), PfCRT3D7 oocytes, normalised to oocyte type control, read-out: PfCRT-mediated [3H]CQ transport, trans-stimulation (% PfCRT3D7 control)",97 ± 4.6%
same,activity at 45000 µM,"[6]; SEM, read-out: Uptake of [3H]CQ (% PfCRTDd2 control), trans-stimulation, PfCRT3D7",3.3 ± 0.04%
same,activity at 45000 µM,"[6]; read-out: PfCRT-mediated [3H]CQ transport, trans-stimulation (% PfCRT3D7 control)",98 ± 1%
same,activity at 45000 µM,"[6]; read-out: Uptake of [3H]CQ (% PfCRT3D7 control), trans-stimulation",100 ± 2.7%
same,activity at 5000 µM,"[6]; total [3H]CQ transport, [test solute]i = 5 mM (intracellular), mean ± SEM, SEM, read-out: Uptake of [3H]CQ (% PfCRTDd2 control), trans-stimulation, PfCRT3D7",3.3 ± 0.01%
same,activity at 5000 µM,"[7]; pH 5.5, read-out: PfCRT-mediated [3H]CQ transport, trans-stimulation (% PfCRTDd2 control), [test solute]i = 5 mM (intracellular), PfCRTDd2 oocytes, normalised to oocyte type control",99 ± 3.4%
same,activity at 5000 µM,"[7]; pH 5.5, read-out: Uptake of [3H]CQ (% PfCRTDd2 control), trans-stimulation, PfCRTDd2, total [3H]CQ transport, [test solute]i = 5 mM (intracellular), mean ± SEM, SEM",101 ± 2.2%
same,activity at 5000 µM,"[7]; pH 5.5, read-out: Uptake of [3H]CQ (% PfCRTDd2 control), trans-stimulation, PfCRTDd2 oocytes, [test solute]i = 5 mM, total [3H]CQ transport, normalised to the oocyte type control",101 ± 2.2%
same,activity at 45000 µM,"[7]; pH 5.5, read-out: Uptake of [3H]CQ (% PfCRTDd2 control), trans-stimulation, PfCRTDd2 oocytes, total [3H]CQ transport, normalised to the oocyte type control",100 ± 2.4%
same,activity at 5000 µM,"[7]; pH 5.5, read-out: [3H]CQ transport (% PfCRTDd2 control), trans-stimulation, PfCRTDd2, trans-stimulation, [test solute]i = 5 mM (injected), PfCRT-mediated component (background subtracted), mean ± SEM, SEM",99 ± 3.4%
same,activity at 45000 µM,"[7]; pH 5.5, read-out: [3H]CQ transport (% PfCRTDd2 control), trans-stimulation, PfCRTDd2, trans-stimulation, PfCRT-mediated component (background subtracted), mean ± SEM, SEM",98 ± 3.7%
same,activity at 5000 µM,"[8]; pH 5.5, read-out: PfCRT-mediated [3H]CQ transport, trans-stimulation (% PfCRTEcu1110 control), [test solute]i = 5 mM (intracellular), PfCRTEcu1110 oocytes, normalised to oocyte type control",97 ± 3.3%
same,activity at 5000 µM,"[8]; pH 5.5, read-out: Uptake of [3H]CQ (% PfCRTEcu1110 control), trans-stimulation, PfCRTEcu1110 oocytes, [test solute]i = 5 mM, total [3H]CQ transport, normalised to the oocyte type control",99 ± 2.7%
same,activity at 45000 µM,"[8]; pH 5.5, read-out: Uptake of [3H]CQ (% PfCRTEcu1110 control), trans-stimulation, PfCRTEcu1110 oocytes, [test solute]i = 45 mM (30 mM for some solutes due to solubility), total [3H]CQ transport, normalised to the oocyte type control",99 ± 3.5%
same,activity at 5000 µM,"[8]; read-out: Uptake of [3H]CQ (% PfCRTDd2 control), trans-stimulation, PfCRTEcu1110, total [3H]CQ transport, [test solute]i = 5 mM (intracellular), mean ± SEM, SEM",35 ± 1.3%
same,activity at 45000 µM,"[8]; read-out: Uptake of [3H]CQ (% PfCRTDd2 control), trans-stimulation, PfCRTEcu1110, total [3H]CQ transport, [test solute]i = 45 mM (intracellular; 30 mM for some solutes due to solubility), mean ± SEM, SEM",35 ± 2.6%
same,activity at 5000 µM,"[9]; PfNT1 oocytes, [test solute]i = 5 mM, normalised to the oocyte type control, read-out: Uptake of [3H]CQ (% PfNT1 control), trans-stimulation",99 ± 4.2%
same,activity at 45000 µM,"[9]; SEM, read-out: Uptake of [3H]CQ (% PfCRTDd2 control), trans-stimulation, PfNT1",2.8 ± 0.02%
same,activity at 45000 µM,"[9]; read-out: Uptake of [3H]CQ (% PfNT1 control), trans-stimulation",98 ± 3.1%
same,activity at 5000 µM,"[9]; [test solute]i = 5 mM (intracellular), mean ± SEM, SEM, read-out: Uptake of [3H]CQ (% PfCRTDd2 control), trans-stimulation, PfNT1",3.2 ± 0.02%
same,Tested as potential co-substrate but not required for influx of VF-6 via PfCRT into the oocyte,[10],X
same,Tested as potential co-substrate but not required for influx of VF-6 via PfCRT into the oocyte,[11],X
